Test results reported in patent publication US5128344A, “Sampangine and derivatives useful as an antifungal agent” (University of Mississippi, priority 1990, dated 1992).
≈ marks a conversion by molar mass, not a printed value. Entries after “also recorded” stand apart in the source; their conditions may differ.

Key:
Candida albicans [1] = experiment: MIC, twofold serial broth dilution assay, Candida albicans; format: cell-based, Candida albicans NIH B311; details: 24 h, 37°
Procedure: (§1) Candida albicans NIH B311 used to induce experimental disseminated candidiasis was used for the initial qualitative evaluation of anticandidal activity. The organism was grown in Sabouraud-dextrose broth (SDB) for 24 hours at 37°, at which time the cells were harvested by centrifugation at (4°, 2000 rpm, 3 min.). After centrifugation, the cells were washed and suspended in sterile 0.9% saline to give a final concentration of 10^6 colony forming units (CFU) per ml (adjusted using a hemocytometer). Inocula of Cryptococcus neoformans and Aspergillus fumigatus were prepared by suspension of the surface growth of stock agar slants in sterile H2 O. Culture plates (15×100 mm) for the qualitative assay were prepared from 25 ml of Sabouraud-dextrose agar for Candida albicans, and Mycophil™ agar for Cryptococcus neoformans and Aspergillus fumigatus. Using sterile cotton swabs, the plates were streaked with the suspension of appropriate test organism. Cylindrical plugs were removed from the agar plates by means of sterile cork borer to produce wells with a diameter of approximately 11 mm. To the well was added 100 μl of solution or suspension of an extract, fraction, or pure compound. Crude extracts and fractions were tested at a concentration of 20 mg/ml, whereas pure compounds were tested at 1 mg/ml. When solvents other than water, ethanol, methanol, dimethylsulfoxide (DMSO), dimethylformamide (DMF), or acetone were required to dissolve extracts or compounds, solvent blanks were included. Antifungal activity was recorded as the width (in mm) of the zone of inhibition, measured from the edge of the agar well to the edge of the zone, following incubation of the plates for 24 hours (37° for Candida albicans, 30° for Aspergillus fumigatus and 26° for Cryptococcus neoformans). The antifungal agents amphotericin B and ketoconazole were included as positive controls in each assay.
(§2) The method used to determine the minimum inhibitory concentration (MIC) was the twofold serial broth dilution assay in one or more of the following broth media: yeast nitrogen broth, Mycophil™ broth and Saboraud-dextrose broth (SDB). The inoculum for the MIC determination was prepared as described above for the qualitative evaluation. Using a calibrated sterile wire loop, each tube was inoculated with 10 μl of the suspension. The MIC value was taken as the lowest concentration of compound that inhibited the growth of the test organisms after an appropriate incubation period (37° for 24 hours for Candida albicans; 30° for 48 hours for Aspergillus fumigatus; 26° for 48 hours for Cryptococcus neoformans). The antifungal agent amphotericin B was included as positive control in each assay.

Cryptococcus neoformans = experiment: MIC, twofold serial broth dilution assay, Cryptococcus neoformans; format: cell-based, Cryptococcus neoformans ATCC 32264; details: 48 h, Cn, 26°
Procedure: (§3) The generic name for the compound is 3-Methoxysampangine. The antifungal activity of the compound was determined by in vitro evaluation against Candida albicans NIH B311, Cryptococcus neoformans ATCC 32264, and Aspergillus fumigatus ATCC 26934 using the known agar-well diffusion assay techniques with the following modifications.
as §1, §2

Aspergillus fumigatus = experiment: MIC, twofold serial broth dilution assay, Aspergillus fumigatus; format: cell-based, Aspergillus fumigatus ATCC 26934; details: Af, 30°, 48 hours
Procedure: as §3, §1, §2

[2] = tested on: Candida albicans, Cryptococcus neoformans and Aspergillus fumigatus; experiment: in vitro antifungal activity, overall statement in words; format: cell-based; details: against both yeasts and the filamentous fungus
Procedure: as §3, §1
The method used to determine the minimum inhibitory concentration (MIC) was the twofold serial broth dilution assay in one or more of the following broth media: yeast nitrogen broth, Mycophil™ broth and Saboraud-dextrose broth (SDB). The inoculum for the MIC determination was prepared as described above for the qualitative evaluation. Using a calibrated sterile wire loop, each tube was inoculated with 10 μl of the suspension. […]

Candida albicans [3] = details: J. Natural Products 1987, Hufford et al.; cited from earlier work
[4] = Candida albicans, Ca B311, SDB (Sabouraud dextrose broth)
[5] = Cryptococcus neoformans, SDB (Sabouraud dextrose broth)
[6] = Ca B311, YNB (yeast nitrogen base broth)
[7] = Candida albicans, Ca B311, MYCO (Mycophil broth)
[8] = YNB (yeast nitrogen base broth)
[9] = Cryptococcus neoformans, MYCO (Mycophil broth)

| MIC (Candida albicans [1]; [4]) [µg/mL] | MIC (Cryptococcus neoformans; [5]) [µg/mL] | MIC (Aspergillus fumigatus; SDB (Sabouraud dextrose broth)) [µg/mL] | MIC (Candida albicans [1]; [6]) [µg/mL] | MIC (Candida albicans [1]; [7]) [µg/mL] | MIC (Cryptococcus neoformans; [8]) [µg/mL] | MIC (Cryptococcus neoformans; [9]) [µg/mL] | MIC (Aspergillus fumigatus; MYCO (Mycophil broth)) [µg/mL] | MIC (Candida albicans [1]; Ca B311, YNB (yeast nitrogen base broth) (original)) [µg/mL] | MIC (Cryptococcus neoformans; YNB (yeast nitrogen base broth) (original)) [µg/mL] | Structure (SMILES) | antifungal activity (in words) [2] | anticandidal properties (in words) (Candida albicans [3]) |
| --- | --- | --- | --- | --- | --- | --- | --- | --- | --- | --- | --- | --- |
| 3.12 (≈ 11.9 µM) | 0.2 (≈ 0.763 µM) | 3.12 (≈ 11.9 µM) | – | – | – | – | – | – | – | COc1cnc2c3c(nccc13)C(=O)c1ccccc1-2 [3-Methoxysampangine] | significant antifungal activity; also recorded: remarkable antifungal properties | – |
| 25 (≈ 80.4 µM) | 0.39 (≈ 1.25 µM) | – | 12.5 (≈ 40.2 µM) | 25 (≈ 80.4 µM) | < 0.2 | < 0.2 | 50 (≈ 161 µM) | – | – | O=C1c2ccccc2-c2nccc3c(Br)cnc1c23 [4-Bromosampangine] | significant antifungal activity | – |
| 100 (≈ 381 µM) | 3.12 (≈ 11.9 µM) | – | 3.12 (≈ 11.9 µM) | 100 (≈ 381 µM) | 12.5 (≈ 47.7 µM) | 1.56 (≈ 5.95 µM) | – | – | – | COc1cnc2c3c(nccc13)-c1ccccc1C2=O [4-Methoxysampangine] | significant antifungal activity | – |
| – | – | – | – | 0.2 (≈ 0.216 µM) | – | 0.2 (≈ 0.216 µM) | 3.12 (≈ 3.38 µM) | – | – | C[C@@H]1[C@H](O)[C@@H](C)/C=C/C=C/C=C/C=C/C=C/C=C/C=C/[C@H](O[C@@H]2O[C@H](C)[C@@H](O)[C@H](N)[C@@H]2O)C[C@@H]2O[C@](O)(C[C@@H](O)C[C@@H](O)[C@H](O)CC[C@@H](O)C[C@@H](O)CC(=O)O[C@H]1C)C[C@H](O)[C@H]2C(=O)O [Amphotericin B, reference compound] | – | – |
| 1.56 (≈ 5.53 µM) | < 0.2 | – | 3.12 (≈ 11.1 µM) | 50 (≈ 177 µM) | 1.56 (≈ 5.53 µM) | < 0.2 | 0.39 (≈ 1.38 µM) | – | – | O=C1c2ccccc2-c2nccc3c2c1nc1ccccc13 [Benzo[4,5]sampangine] | – | – |
| 6.25 (≈ 26.9 µM) | < 0.2 | – | 0.78 (≈ 3.36 µM) | 12.5 (≈ 53.8 µM) | < 0.2 | 0.78 (≈ 3.36 µM) | 1.56 (≈ 6.72 µM) | 1.56 (≈ 6.72 µM) | < 0.005 | O=C1c2ccccc2-c2nccc3ccnc1c23 [Sampangine] | significant antifungal activity | – |
| – | – | – | – | – | – | – | – | – | – | c1ccc2c(c1)-c1nccc3ccnc-2c13 [eupolauridine] | – | possibly remarkable anticandidal properties |
